Assay results from patent US11351271B2, “RNA-based logic circuits with RNA binding proteins, aptamers and small molecules” (priority 2014, dated 2022).

Assays:
[1] = system: DDe (human estrogen receptor ligand binding domain) fused to Fluc2; settings: C2C12
DDd-L7Ae [2] = system: DDd-L7Ae
DDd-L7Ae [3] = assay: DDd-L7Ae OFF switch on replicon in myotubes differentiated from C2C12; type: cell-based

In the case of `CC/C(=C(\c1ccc(O)cc1)c1ccc(OCCN(C)C)cc1)c1ccccc1` [4-OHT, 4-hydroxytamoxifin], the “Increase of DDe-Fluc2 expression compared to no small molecule” value [1] is reported as 6.4 fold.
In the case of `COc1cc(Cc2cnc(N)nc2N)cc(OC)c1OC` [TMP, trimethoprim], the “Repression of reporter upon addition of TMP” value (DDd-L7Ae [2]) is reported as 22.5 fold and the “Decrease in expression after addition of TMP” value (DDd-L7Ae [3]; mouse myotubes, optimized circuit with PKR inhibitors) is reported as 15 fold.
In the case of `O=C1Nc2ccc3ncsc3c2/C1=C/c1cnc[nH]1` [C16], the “Effect on expression and fold change of the DDd-L7Ae circuit” value (DDd-L7Ae [3]; myotubes) is reported as “increase expression and overall fold change”.
